Measurements: patent US20210221785A1, “AMINO-PYRIMIDONYL DERIVATIVES, A PROCESS FOR THEIR PREPARATION AND PHARMACEUTICAL COMPOSITIONS CONTAINING THEM” (LES LABORATOIRES SERVIER, priority 2018, published 2021)

Tests used:
[1] = system: Z138 mantle cell lymphoma tumour cell lines; assay: In vitro cytotoxicity, MTT assay; format: cell-based; details: Homo sapiens, Z-138, 96 h, Z138 cells exposed to the test compounds for 96 hours; cell viability vs DMSO treated cells
Procedure, shortened: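 Z138 cells exposed to compounds for 96 hours, then MTT added for 4 hours. Viable cells quantified from formazan absorbance at 540 nm.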

[2] = target: T1, His-His-USP7 (aa208-560, |C315A|) (Homo sapiens, UniProt Q93009, C315A); assay: Evaluation of the inhibition of USP7 by the Fluorescence Intensity (FLINT) readings; format: biochemical; details: 0.25 nM His-His-USP7, compound incubated 60 minutes at 30° C., 500 nM Ubiquitin-Rhodamine-110 substrate; 50% reduction in kinetic rate
T1 construct: His-His-USP7 (aa208-560, |C315A|); His-His (N)
T1 sequence (Q93009 208-560 C315A): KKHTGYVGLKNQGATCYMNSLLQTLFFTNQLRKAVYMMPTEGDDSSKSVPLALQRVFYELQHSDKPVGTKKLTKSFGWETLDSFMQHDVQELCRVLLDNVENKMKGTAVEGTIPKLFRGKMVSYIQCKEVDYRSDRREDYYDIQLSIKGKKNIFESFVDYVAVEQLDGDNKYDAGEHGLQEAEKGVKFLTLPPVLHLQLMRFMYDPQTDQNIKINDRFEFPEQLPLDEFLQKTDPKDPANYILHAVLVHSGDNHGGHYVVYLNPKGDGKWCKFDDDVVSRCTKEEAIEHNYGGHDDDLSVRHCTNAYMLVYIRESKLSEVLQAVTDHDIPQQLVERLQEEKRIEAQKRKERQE
Procedure, shortened: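 IC50 reflects 50% reduction in kinetic rate of rhodamine-110 release (Ex485/Em535, reads every 3 min over 21 min), normalised to DMSO and no-enzyme controls, from an 11-point 4-parameter fit. Substrate is 500 nM Ub-Rh110, added after 60 min, 30 °C preincubation of compound with 0.25 nM USP7 aa208–560 C315A. Buffer is Bicine pH 8.0 with 10% DMSO.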

Nc1c(Oc2cccc(C3CNCCO3)c2)ncn(CC2(O)CCN(C(=O)[C@@H]3CCC(F)(F)C[C@H]3c3ccccc3)CC2)c1=O (stereo partly drawn) [Example 115, 5-amino-3-([1-[(1R,2R)-4,4-difluoro-2-phenylcyclohexane-1-carbonyl]-4-hydroxypiperidin-4-yl]methyl)-6-[3-(morpholin-2-yl)phenoxy]pyrimidin-4(3H)-one]
IC50 [1]: 0.85 µM
IC50 [2]: 37.2 nM

N#CCc1ccc(Oc2ncn(CC3(O)CCN(C(=O)[C@@H]4CCC(F)(F)C[C@H]4c4ccccc4)CC3)c(=O)c2N)cc1 [Example 117, (4-{[5-amino-1-({1-[(1R,2R)-4,4-difluoro-2-phenylcyclohexane-1-carbonyl]-4-hydroxypiperidin-4-yl}methyl)-6-oxo-1,6-dihydropyrimidin-4-yl]oxy}phenyl)acetonitrile]
IC50 [1]: 0.617 µM
IC50 [2]: 82.2 nM

Nc1c(Oc2ccc(F)c(CO)c2)ncn(CC2(O)CCN(C(=O)[C@@H]3CCC(F)(F)C[C@H]3c3ccccc3)CC2)c1=O [Example 118, 5-amino-3-({1-[(1R,2R)-4,4-difluoro-2-phenylcyclohexane-1-carbonyl]-4-hydroxypiperidin-4-yl}methyl)-6-[4-fluoro-3-(hydroxymethyl)phenoxy]pyrimidin-4(3H)-one]
IC50 [1]: 0.0413 µM
IC50 [2]: 33.1 nM

Nc1cc(Oc2ncn(CC3(O)CCN(C(=O)[C@@H]4CCC(F)(F)C[C@H]4c4ccccc4)CC3)c(=O)c2N)ccc1F [Example 119, 5-amino-6-(3-amino-4-fluorophenoxy)-3-({1-[(1R,2R)-4,4-difluoro-2-phenylcyclohexane-1-carbonyl]-4-hydroxypiperidin-4-yl}methyl)pyrimidin-4(3H)-one]
IC50 [1]: 0.0613 µM
IC50 [2]: 38 nM

CC(C)c1ccc(Oc2ncn(CC3(O)CCN(C(=O)[C@@H]4CCC(F)(F)C[C@H]4c4ccccc4)CC3)c(=O)c2N)cc1O [Example 120, 5-amino-3-({1-[(1R,2R)-4,4-difluoro-2-phenylcyclohexane-1-carbonyl]-4-hydroxypiperidin-4-yl}methyl)-6-[3-hydroxy-4-(propan-2-yl)phenoxy]pyrimidin-4(3H)-one]
IC50 [1]: 0.103 µM
IC50 [2]: 16.3 nM

Nc1c(Oc2ccc(C3CCCCN3)cc2)ncn(CC2(O)CCN(C(=O)[C@@H]3CCC(F)(F)C[C@H]3c3ccccc3)CC2)c1=O (stereo partly drawn) [Example 121, 5-amino-3-({1-[(1R,2R)-4,4-difluoro-2-phenylcyclohexane-1-carbonyl]-4-hydroxypiperidin-4-yl}methyl)-6-[4-(piperidin-2-yl)phenoxy]pyrimidin-4(3H)-one]
IC50 [1]: 0.546 µM
IC50 [2]: 3.08 nM

C#C[C@]1(F)CC[C@@H](C(=O)N2CCC(O)(Cn3cnc(Oc4ccc(F)cc4)c(N)c3=O)CC2)[C@H](c2ccccc2)C1 [Example 122, 5-amino-3-({1-[(1R,2R,4S)-4-ethynyl-4-fluoro-2-phenylcyclohexanecarbonyl]-4-hydroxypiperidin-4-yl}methyl)-6-(4-fluorophenoxy)-3,4-dihydropyrimidin-4-one]
IC50 [1]: 0.0374 µM
IC50 [2]: 26.3 nM

C#C[C@@]1(F)CC[C@@H](C(=O)N2CCC(O)(Cn3cnc(Oc4ccc(F)cc4)c(N)c3=O)CC2)[C@H](c2ccccc2)C1 [Example 123, 5-amino-3-({1-[(1R,2R,4R)-4-ethynyl-4-fluoro-2-phenylcyclohexanecarbonyl]-4-hydroxypiperidin-4-yl}methyl)-6-(4-fluorophenoxy)-3,4-dihydropyrimidin-4-one]
IC50 [1]: 0.0466 µM
IC50 [2]: 35.4 nM

Nc1c(Oc2ccc(F)cc2)ncn(CC2(O)CCN(C(=O)[C@@H]3CC[C@](F)(C#Cc4cccnc4)C[C@H]3c3ccccc3)CC2)c1=O [Example 130, 5-amino-3-[(1-{[(1R,2R,4R)-4-fluoro-2-phenyl-4-[2-(pyridin-3-yl)ethynyl]cyclohexyl]carbonyl}-4-hydroxypiperidin-4-yl)methyl]-6-(4-fluorophenoxy)pyrimidin-4-one]
IC50 [1]: 0.0144 µM
IC50 [2]: 17 nM

Nc1c(Oc2ccc(F)cc2)ncn(CC2(O)CCN(C(=O)[C@@H]3CC[C@](F)(C#Cc4ccccn4)C[C@H]3c3ccccc3)CC2)c1=O [Example 132, 5-amino-3-[(1-{[(1R,2R4R)-4-fluoro-2-phenyl-4-[2-(pyridin-2-yl)ethynyl]cyclohexyl]carbonyl}-4-hydroxypiperidin-4-yl)methyl]-6-(4-fluorophenoxy)pyrimidin-4-one]
IC50 [1]: 0.00214 µM
IC50 [2]: 3.29 nM

Nc1c(Oc2ccc(F)cc2)ncn(CC2(O)CCN(C(=O)[C@@H]3CC[C@](F)(C#Cc4ccc(F)cn4)C[C@H]3c3ccccc3)CC2)c1=O [Example 133, 5-amino-3-[(1-{[(1R,2R4R)-4-fluoro-4-[2-(5-fluoropyridin-2-yl)ethynyl]-2-phenylcyclohexyl]carbonyl}-4-hydroxypiperidin-4-yl)methyl]-6-(4-fluorophenoxy)pyrimidin-4-one]
IC50 [1]: 0.0187 µM
IC50 [2]: 31.5 nM

Nc1c(Oc2ccc(F)cc2)ncn(CC2(O)CCN(C(=O)[C@@H]3CC[C@@](F)(C#Cc4ccc(F)cn4)C[C@H]3c3ccccc3)CC2)c1=O [Example 134, 5-amino-3-[(1-{[(1R,2R,4S)-4-fluoro-4-[2-(5-fluoropyridin-2-yl)ethynyl]-2-phenylcyclohexyl]carbonyl}-4-hydroxypiperidin-4-yl)methyl]-6-(4-fluorophenoxy)pyrimidin-4-one]
IC50 [1]: 0.0309 µM
IC50 [2]: 80.7 nM

Nc1c(Oc2ccc(F)cc2)ncn(CC2(O)CCN(C(=O)[C@@H]3CC[C@@](F)(C#Cc4cnccn4)C[C@H]3c3ccccc3)CC2)c1=O [Example 137, 5-amino-3-({1-[(1R42R,4S)-4-fluoro-2-phenyl-4-[2-(pyrazin-2-yl)ethynyl]cyclohexanecarbonyl]-4-hydroxypiperidin-4-yl}methyl)-6-(4-fluorophenoxy)-3,4-dihydropyrimidin-4-one]
IC50 [1]: 0.0246 µM
IC50 [2]: 62.7 nM

Nc1c(Oc2ccc(F)cc2)ncn(CC2(O)CCN(C(=O)[C@@H]3CC[C@](F)(C#Cc4cnccn4)C[C@H]3c3ccccc3)CC2)c1=O [Example 138, 5-amino-3-({1-[(1R,2R,4R)-4-fluoro-2-phenyl-4-[2-(pyrazin-2-yl)ethynyl]cyclohexanecarbonyl]-4-hydroxypiperidin-4-yl}methyl)-6-(4-fluorophenoxy)-3,4-dihydropyrimidin-4-one]
IC50 [1]: 0.00657 µM
IC50 [2]: 20.3 nM

CO[C@]1(C#Cc2cncnc2)CC[C@@H](C(=O)N2CCC(O)(Cn3cnc(Oc4ccc(F)cc4)c(N)c3=O)CC2)[C@H](c2ccccc2)C1 [Example 139, 5-amino-6-(4-fluorophenoxy)-3-[(4-hydroxy-1{[(1R, 2R,4R)-4-methoxy-2-phenyl-4-[2-(pyrimidin-5-yl)ethynyl]cyclohexyl]carbonyl}piperidin-4-yl)methyl]pyrimidin-4-one]
IC50 [1]: 0.0291 µM
IC50 [2]: 49.7 nM

Nc1c(Oc2ccc(F)cc2)ncn(CC2(O)CCN(C(=O)[C@@H]3CC[C@@](F)(C#Cc4cncnc4)C[C@H]3c3ccccc3)CC2)c1=O [Example 140, 5-amino-3-({1-[(1R,2R,4S)-4-fluoro-2-phenyl-4-[2-(pyrimidin-5-yl)ethynyl]cyclohexanecarbonyl]-4-hydroxypiperidin-4-yl}methyl)-6-(4-fluorophenoxy)-3,4-dihydropyrimidin-1-one]
IC50 [1]: 0.0498 µM
IC50 [2]: 69.1 nM

Nc1c(Oc2ccc(F)cc2)ncn(CC2(O)CCN(C(=O)[C@@H]3CC[C@](F)(C#Cc4ncccn4)C[C@H]3c3ccccc3)CC2)c1=O [Example 141, 5-amino-3-[(1-{[(1R,2R,4R)-4-fluoro-2-phenyl-4-[2-(pyrimidin-2-yl)ethynyl]cyclohexyl]carbonyl}-4-hydroxypiperidin-4-yl)methyl]-6-(4-fluorophenoxy)pyrimidin-4-one]
IC50 [1]: 0.0117 µM
IC50 [2]: 41 nM

Nc1c(Oc2ccc(F)cc2)ncn(CC2(O)CCN(C(=O)[C@@H]3CC[C@@](F)(C#Cc4ncccn4)C[C@H]3c3ccccc3)CC2)c1=O [Example 142, 5-amino-3-[(1-{[(1R,2R,4S)-4-fluoro-2-phenyl-4-[2-(pyrimidin-2-yl)ethynyl]cyclohexyl]carbonyl}-4-hydroxypiperidin-4-yl)methyl]-6-(4-fluorophenoxy)pyrimidin-4-one]
IC50 [1]: 0.0176 µM
IC50 [2]: 58.8 nM

Nc1c(Oc2ccc(F)cc2)ncn(CC2(O)CCN(C(=O)[C@@H]3CC=C(C#Cc4ncccn4)C[C@H]3c3ccccc3)CC2)c1=O [Example 143, 5-amino-6-(4-fluorophenoxy)-3-[(4-hydroxy-1-{[(1R,6R)-6-phenyl-4-[2-(pyrimidin-2-yl)ethynyl]cyclohex-3-en-1-yl]carbonyl}piperidin-4-yl)methyl]pyrimidin-4-one]
IC50 [1]: 0.0787 µM
IC50 [2]: 56.5 nM

Nc1c(Oc2ccc(F)cc2)ncn(CC2(O)CCN(C(=O)[C@@H]3CC[C@](F)(C#Cc4cncnc4)C[C@H]3c3ccccc3)CC2)c1=O [Example 144, 5-amino-3-({1-[(1R,2R,4R)-4-fluoro-2-phenyl-4-[2-(pyrimidin-5-yl)ethynyl]cyclohexanecarbonyl]-4-hydroxypiperidin-4-yl}methyl)-6-(4-fluorophenyoxy)-3,4-dihydropyrimidin-4-one]
IC50 [1]: 0.0122 µM
IC50 [2]: 21 nM

Nc1c(Oc2ccc(F)cc2)ncn(CC2(O)CCN(C(=O)[C@@H]3CC[C@](F)(C#Cc4cccnn4)C[C@H]3c3ccccc3)CC2)c1=O [Example 145, 5-amino-3-[(1-{[(1R,2R,4R)-4-fluoro-2-phenyl-4-[2-(pyridazin-3-yl)ethynyl]cyclohexyl]carbonyl}-4-hydroxypiperidin-4-yl)methyl]-6-(4-fluorophenoxy)pyrimidin-4-one]
IC50 [1]: 0.00231 µM
IC50 [2]: 8.66 nM
